Source: US20250000936A1, “TREATMENT OF GEOGRAPHIC ATROPHY” (Apellis Pharmaceuticals, Inc., priority 2021, published 2025)
Where two headings read alike, the source gives them in different places.

Key:
[1] = tested on: patients with geographic atrophy (GA) secondary to age-related macular degeneration (AMD); assay: DERBY and OAKS combined: safety; settings: for CNV type on FA at eAMD study visit: Active leakage with low likelihood of CNV / CNV type on FA at eAMD study visit: Classic / CNV type on FA at eAMD study visit: Classic + occult / CNV type on FA at eAMD study visit: Occult / investigator-reported events of eAMD, double-layer sign (DLS) present in the study eye / investigator-reported events of eAMD, CNV present in the fellow eye / investigator-reported events of eAMD, CNV absent in the fellow eye / investigator-reported events of eAMD, double-layer sign (DLS) absent in the study eye: through month 18; for Investigator-determined new-onset eAMD in fellow eyes: through 18 months; for combined rate of new-onset exudations: month 24
Protocol: All randomized subjects returned every month to the clinical site for assessments and additional pegcetacoplan or sham injections according to their randomization scheme until Month 12. From Month 12 onwards, subjects return to the clinical site based on their randomized treatment schedule (monthly or EOM) and follow the treatment regimen and assessments outlined in the Visit Schedule until Month 24. Safety was assessed throughout the study by a number of evaluations including: monitoring of AEs, preinjection and postinjection monitoring, blood and urine samples collected, physical examination, vital signs, and follow-up phone calls. Blood samples were also be collected for anti-therapeutic antibodies, genotyping, and clinical repository (if the subject consented to this portion).
The Safety set consisted of all subjects randomized who received at least one injection of pegcetacoplan or sham. Subjects were analyzed according to the actual treatment received. […] This population was used for all safety analyses.

[2] = tested on: patients with GA; settings: FILLY, month 12, cited from earlier work
[3] = tested on: patients with geographic atrophy (GA) secondary to age-related macular degeneration (AMD); assay: DERBY Phase 3 study: GA lesion growth in study eye by fundus autofluorescence; type: in vivo, human; settings: for reduction in GA lesion growth from baseline compared to sham: over 24 months; for reduction in lesion growth in the study eye versus the untreated study eye: bilateral GA; for reduction in lesion growth in the study eye versus the untreated study eye / percentage reduction versus sham pooled: 18 months
Excerpt: This Example describes 12-month results from two Phase 3 multi-center, randomized, double-masked, sham-controlled studies (“DERBY” and “OAKS”) to compare the efficacy and safety of intravitreal APL-2 (pegcetacoplan, also referred to as “Study Drug” in this Example) therapy with sham injections in patients with geographic atrophy (GA) secondary to age-related macular degeneration (AMD).
To participate in the studies, subjects must have been diagnosed with GA of the macula secondary to AMD in the study eye. At screening, male and female subjects were required to fulfill all of the following inclusion criteria to be eligible for participation in the study. If both eyes met the inclusion criteria, the eye with the worst normal luminance visual acuity at the screening visit was designated as the study eye. If both eyes had the same visual acuity, the right eye was selected as the study eye. Ocular-specific inclusion criteria applied to the study eye only, unless otherwise specified.
The design of the DERBY and OAKS studies are schematically depicted in FIG. 2. Each subject was assigned a unique screening number after signing the informed consent. Subjects who completed the study screening assessments and met all the eligibility criteria entered the study and were randomized on Day 1. As part of the screening process, the reading center evaluated FAF, OCT, Digital Color Fundus Photograph (DCFP), Near Infrared Reflectance (NIR), and fluorescein angiography (FA) to provide an objective assessment of subject eligibility. Subjects were randomized 2:2:1:1 to receive treatment with Study Drug monthly (PM), Study Drug every other month (PEOM), sham injection monthly (SM) or sham injection every other month (SEOM), respectively.
The Study Drug was pegcetacoplan (also referred to as “APL-2”) (see FIG. 1), which was provided for intravitreal injection at 15 mg/0.1 mL (150 mg/mL) as a sterile, isotonic solution of pegcetacoplan in acetate-buffer, pH 5.0, containing trehalose, supplied in stoppered glass vials.
The primary endpoint in the studies was the change from baseline to Month 12 in total area of GA lesion(s) in the study eye (in mm^2) based on Fundus Autofluorescence (FAF). Key secondary endpoints included change from baseline in the mean threshold sensitivity of all points (study eye) assessed by mesopic microperimetry at Month 24; change from baseline in monocular maximum reading speed (study eye), at Month 24 as assessed by MNRead or Radner reading charts (in select sites); change from baseline in mean FRI Index score (subject-level assessment) at Month 24; and change from baseline in NL-BCVA score (study eye) at Month 24 as assessed by Early Treatment Diabetic Retinopathy Study (ETDRS) chart. Additional secondary endpoints included change from baseline in LL-BCVA score (study eye) over time as assessed by ETDRS chart; change from baseline in the total area of GA lesion(s) in the study eye (in mm^2) as assessed by FAF over time other than Month 12; change from baseline in monocular critical print size (study eye), as assessed by MNRead or Radner reading charts (in select sites) over time; change from baseline in the NEI VFQ-25 distance activity subscale score (in select sites) (subject level assessment) over time; change from baseline in the number of scotomatous points assessed by mesopic microperimetry over time; and change from baseline in the mean threshold sensitivity within 500 microns outside the GA lesion, (perilesional points) assessed by mesopic microperimetry over time.
Two sham treatment arms (SM and SEOM) were pooled into a single control (Sham) group for analyses.
Subjects were analyzed in the treatment arm assigned at randomization.
Unless otherwise noted, hypothesis testing and estimation of treatment effects will be performed with a mixed effect model for repeated measure (MMRM) that includes data from all three treatment arms (PM, PEOM, and Sham). […]

[4] = combined, PEOM (every other month), N=21 events
[5] = combined, PM (monthly), N=26 events
[6] = combined, between months 18 and 24
[7] = post-hoc quartiles of GA lesion growth over 18 months (FIG. 27)

## Poly(oxy-1,2-ethanediyl), α-hydro-ω-hydroxy-, 15,15′-diester with N-acetyl-L-isoleucyl-L-cysteinyl-L-valyl-1-methyl-L-tryptophyl-L-glutaminyl-L-α-aspartyl-L-tryptophylglycyl-L-alanyl-L-histidyl-L-arginyl-L-cysteinyl-L-threonyl-2-[2-(2-aminoethoxy) ethoxy]acetyl-N^6-carboxy-L-lysinamide cyclic (2->12)-(disulfide) [pegcetacoplan]
[1]; both Phase 3 studies, 12 months
  tolerability: well tolerated
[1]; combined, 12 months
  events of retinal vasculitis or retinal vein occlusion: No events
[1]; combined, 12 months, thirteen events
  intraocular inflammation events: 0.21 % per injection
[1]; [4]
  CNV type on FA at eAMD study visit: Active leakage with low likelihood of CNV: 0 n (%)
  CNV type on FA at eAMD study visit: Classic: 1 (4,8%) n (%)
  CNV type on FA at eAMD study visit: Classic + occult: 0 n (%)
  CNV type on FA at eAMD study visit: Occult: 20 (95.2%) n (%)
[1]; combined, PEOM (every other month), 339 patients without baseline fellow eye CNV
  Investigator-determined new-onset eAMD in fellow eyes: 13 (3.8%) n (%)
[1]; [5]
  CNV type on FA at eAMD study visit: Active leakage with low likelihood of CNV: 3 (11.5%) n (%)
  CNV type on FA at eAMD study visit: Classic: 1 (3.8%) n (%)
  CNV type on FA at eAMD study visit: Classic + occult: 0 n (%)
  CNV type on FA at eAMD study visit: Occult: 22 (84.6%) n (%)
[1]; combined, PM (monthly), 335 patients without baseline fellow eye CNV
  Investigator-determined new-onset eAMD in fellow eyes: 12 (3.6%) n (%)
[1]; [6]
  cases of endophthalmitis: No cases
  serious adverse events of ischemic optic neuropathy: no serious adverse events
[1]; combined, every other month, 12 months
  pooled rate of new-onset exudations (investigator-determined eAMD), patients: 4.1%
[1]; combined, every other month, month 18, 26/420 patients
  rate of new-onset exudations: 6.2%
[1]; combined, every other month
  combined rate of new-onset exudations: 6.7%
[1]; combined, every other month, 6/73 patients
  investigator-reported events of eAMD, double-layer sign (DLS) present in the study eye: 8.2%
[1]; combined, every other month, 8/81 patients
  investigator-reported events of eAMD, CNV present in the fellow eye: 9.9%
[1]; combined, every other month, 18/338 patients
  investigator-reported events of eAMD, CNV absent in the fellow eye: 5.3%
[1]; combined, every other month, 20/345 patients
  investigator-reported events of eAMD, double-layer sign (DLS) absent in the study eye: 5.8%
[1]; combined, month 18
  events of retinal vasculitis or retinal vein occlusion: No events
  rate of intraocular inflammation: 0.23 % per injection
[1]; combined, monthly, 12 months
  pooled rate of new-onset exudations (investigator-determined eAMD), patients: 6.0%
[1]; combined, monthly, month 18, 40/419 patients
  rate of new-onset exudations: 9.5%
[1]; combined, monthly
  combined rate of new-onset exudations: 11.9%
[1]; combined, monthly, 8/79 patients
  investigator-reported events of eAMD, double-layer sign (DLS) present in the study eye: 10.1%
[1]; combined, monthly, 8/84 patients
  investigator-reported events of eAMD, CNV present in the fellow eye: 9.5%
[1]; combined, monthly, 32/335 patients
  investigator-reported events of eAMD, CNV absent in the fellow eye: 9.6%
[1]; combined, monthly, 32/336 patients
  investigator-reported events of eAMD, double-layer sign (DLS) absent in the study eye: 9.5%
[1]; combined, over 24 months
  events of occlusive vasculitis or retinitis: No events
  rate of intraocular inflammation: 0.24 % per injection
[2]; every other month, p=0.067
  reduction in change from baseline in square root GA lesion size vs sham: 20%
[2]; monthly, p=0.008
  reduction in change from baseline in square root GA lesion size vs sham: 29%
[3]; EOM, months 18-24, p=0.0002
  reduction of GA lesion growth versus sham: 29%
[3]; EOM, p 0.0030 nominal
  reduction in GA lesion growth from baseline compared to sham: 16%
[3]; every other month, p<0.0001
  reduction in lesion growth in the study eye versus the untreated study eye: 16%
[3]; monthly, p=0.0053
  reduction in lesion growth in the study eye versus the untreated study eye: 12%
[3]; distance >250 microns, every other month, p=0.0689
  reduction in GA lesion growth versus sham: 19%
[3]; distance >250 microns, monthly, p=0.2691
  reduction in GA lesion growth versus sham: 13%
[3]; distance ≤250 microns, every other month, p=0.0724
  reduction in GA lesion growth versus sham: 12%
[3]; distance ≤250 microns, monthly, p=0.0490
  reduction in GA lesion growth versus sham: 12%
[3]; every other month, >50 microns, p=0.0047
  percentage reduction versus sham pooled: 24%
[3]; every other month, >100 microns, p=0.0022
  percentage reduction versus sham pooled: 26%
[3]; every other month, >150 microns, p=0.0076
  percentage reduction versus sham pooled: 24%
[3]; every other month, >200 microns, p 0.0229
  percentage reduction versus sham pooled: 20%
[3]; every other month, month 12, p=0.0750
  reduction in GA lesion growth vs pooled sham: 11%
[3]; every other month, month 18, p=0.0023
  reduction in GA lesion growth, covariate-adjusted post-hoc analysis: 16%
[3]; every other month, month 18, p=0.0035
  reduction in extrafoveal GA lesion growth, covariate-adjusted: 24%
[3]; every other month, month 18, p=0.0075
  reduction in extrafoveal GA lesion growth vs pooled sham: 23%
[3]; every other month, month 18, p=0.0332 nominal
  reduction in GA lesion growth vs pooled sham: 12%
[3]; every other month, month 18, p=0.1723
  reduction in foveal GA lesion growth, covariate-adjusted: 9%
[3]; every other month, month 18, p=0.5538
  reduction in foveal GA lesion growth vs pooled sham: 4%
[3]; every other month, months 6-12 segment (FIG. 12A)
  reduction in GA lesion growth vs pooled sham: 16%
[3]; monthly, >50 microns, p=0.0433
  percentage reduction versus sham pooled: 18%
[3]; monthly, >100 microns, p=0.0266
  percentage reduction versus sham pooled: 20%
[3]; monthly, >150 microns, p 0.0468
  percentage reduction versus sham pooled: 19%
[3]; monthly, >200 microns, p=0.0985
  percentage reduction versus sham pooled: 16%
[3]; monthly, month 12, p=0.0528
  reduction in GA lesion growth vs pooled sham: 12%
[3]; monthly, month 18, p 0.0254 nominal
  reduction in GA lesion growth vs pooled sham: 13%
[3]; monthly, month 18, p=0.0024
  reduction in GA lesion growth, covariate-adjusted post-hoc analysis: 16%
[3]; monthly, month 18, p=0.0280
  reduction in foveal GA lesion growth, covariate-adjusted: 14%
[3]; monthly, month 18, p=0.0380
  reduction in extrafoveal GA lesion growth, covariate-adjusted: 18%
[3]; monthly, month 18, p=0.0606
  reduction in extrafoveal GA lesion growth vs pooled sham: 17%
[3]; monthly, month 18, p=0.2015
  reduction in foveal GA lesion growth vs pooled sham: 9%
[3]; monthly, months 6-12 segment (FIG. 12A)
  reduction in GA lesion growth vs pooled sham: 17%
[3]; monthly, months 18-24, p<0.0001
  reduction of GA lesion growth versus sham: 36%
[3]; monthly, p=0.0004 nominal
  reduction in GA lesion growth from baseline compared to sham: 19%
[3]; [7]
  decrease of patients in Q4 (fast progressors), relative to sham: 33%
  increase of patients in Q1 (slow progressors), relative to sham: 15%
